{"source": "patent US20250009843A1", "about": "“COMPOSITIONS AND METHODS FOR TREATMENTS BY MODULATION OF EXCITABLE TISSUES ACTIVITIES, AND FOR ANTIMICROBIAL APPLICATIONS” (priority 2021, published 2025)", "key": {"[1]": {"system": "dorsal root ganglia (DRG) (sensory) neurons", "details": "literature value; cited from earlier work"}, "[2]": {"system": "dorsal root ganglia (DRG) (sensory) neurons", "assay": "Single cell patch clamp on DRG neurons (sodium current, action potentials)", "type": "cell-based, rat", "protocol": "Dorsal Root Ganglia (DRG) sensory neurons were extracted from […] (Cdram). The DRG explants were dissected from the cervical and thoracic regions of the spine of neonatal rat pups (P5) and placed in cold HBSS (lx) without Ca^2+/Mg^2+ (Invitrogen, USA). After cleaning the remnants of peripheral nerve processes, DRGS were seeded in 12-well glass-coated laminin plates. Cells were feed every 2/3 days and they were processed for single cell patch clamping.\nWhole cell patch clamp configuration was used to record from 100 day iPSC derived neurons and DRG neurons. […]\nRecordings were made using the EPC10 patch clamp amplifier from HEKA. Voltage-dependent Na^+ and K^+ currents were recorded in voltage clamp mode from a holding potential of −70 mV; voltage step depolarization was applied up to +20 mV in 10 mV increments and recorded for 200 ms. All data were recorded unfiltered for voltage and current clamp recording at 50.0 kHz and 20.0 kHz, respectively.\nIntrinsic firing properties of neurons were recorded in current clamp mode, with step current injections from a holding value of −5 pA up to +45 pA, for 500 ms, in 10 pA increments. Spontaneous action potential (AP) was recorded in current clamp mode at zero current injection (resting membrane potential) just after whole cell configuration was achieved. […]"}, "DRG cells": {"system": "DRG cells", "assay": "Microelectrode Array (MEA) electrical activity of capsaicin-stimulated DRG cells", "type": "cell-based", "details": "dose range 10-1000 μg/ml; FIG. 3B"}, "DRGs": {"system": "DRGs", "type": "cell-based", "details": "24-72 hours, 2.5 mg/ml of HA or equivalent", "protocol": "(§1) FIG. 4: Data of the effect of various peptide drug embodiments and peptide alone on metabolic activity and viability of cell types (DRG: dorsal root ganglion; hChon: human normal chondrocytes; OA: human OA chondrocytes). n=3 in all cases; all tested at 2.5 mg/ml of HA or equivalent using gram:gram ratio (See Table). Details on test materials given in below table. […] Panel B: Viability assessed using Live/Dead assay. No significant difference between peptide drug at 24-72 hours in DRGs compared to control."}, "[3]": {"system": "TRPV1 pathway in cortical neurons", "assay": "Calcium imaging of cortical neurons (capsaicin, glutamic acid)", "type": "cell-based", "details": "1 μg/ml", "protocol": "TRPV1 channels on neurons open in response to stimuli like capsaicin. Once open cations like calcium flow into the cell, which triggers action potentials and the sensation of pain. Cells tested were cortical neurons, n=3 unless noted. Panel A: Calcium imaging is used to measure calcium flow across neural cell membranes. Cells treated in sequence with no chemical (control), PLA (1.9 kDa at 1 μg/ml), capsaicin, and then glutamic acid. […] This is an effect seen by TRPV1 agonists that are used as analgesics such as capsaicin."}, "cortical neurons": {"system": "cortical neurons", "assay": "Patch clamp of cortical neurons (sodium current)", "type": "cell-based", "details": "1 μg/ml; FIG. 10C"}, "E. coli [4]": {"system": "E. coli", "assay": "Optical density assay of antimicrobial effect", "type": "cell-based", "details": "for E. coli growth (optical density as percentage of control): 16 hours incubation, polymers and conjugates 1-5 mg/ml, PLA 0.01-0.5 mg/ml", "protocol": "As an example of this Hydrobloc prototypes and PLA 1.9 kDa at various concentrations were incubated with E. coli in wells. If microbial growth occurs, then the optical density increases reflecting the colloidal nature of bacterial cells. As a control a blank well is prepared containing growth medium and saline. The results after 16 hours incubation are presented in the figure as a percentage of control. Panel A: Optical density results for various Hydrobloc prototypes and related test materials.\n(§2) Hyaluronic acid (2.2-2.4 MDa) or PEG (10 kDa) was used as base polymer conjugated to Poly-L-Arginine (1.9 kDa or 15-70 kDa) as the AMP in varying mass/mass ratios of conjugation, and at different concentrations. Controls included empirical admixtures of the polymer/AMP as well as just the polymer or AMP.\nPrinciple: Antimicrobial test materials added to wells at various concentrations, wells seeded with microbe. Microbial growth increase the optical density (OD)—assay monitors ability of microbe to grow in presence of test material. […] The microbe used was E. Coli. The results are shown in FIG. 13 with the values presented as a percentage of control (blank). […] The OD is ˜≤0.0 at all concentrations (0.01-0.5 mg/ml). Overall statistical significance is seen with 0.25 mg/ml and 5 mg/ml."}, "E. coli [5]": {"system": "E. coli", "assay": "Kirby-Bauer disk diffusion susceptibility test", "type": "cell-based", "details": "BP12P03 1-10 mg/ml; PLA 0.5 mg/ml", "protocol": "as §2\n(§3) Principle: Disks were saturated with antimicrobial test material and place on agar seeded with microbe. test material diffuses out and after incubation diameter of the clear zone is proportional to potency against the microbe. BP12P03 at 1 mg/ml −10 mg/ml; PLA (1.9 kDA) at 0.5 mg/ml were tested. Microbes used were S. aureus, S. epidermis and E. coli."}, "S. aureus": {"system": "S. aureus", "assay": "Kirby-Bauer disk diffusion susceptibility test", "type": "cell-based", "details": "BP12P03 1-10 mg/ml; PLA 0.5 mg/ml", "protocol": "as §2, §3"}, "S. epidermis": {"system": "S. epidermis", "assay": "Kirby-Bauer disk diffusion susceptibility test", "type": "cell-based", "details": "BP12P03 1-10 mg/ml; PLA 0.5 mg/ml", "protocol": "as §2, §3"}, "[6]": {"system": "DRG: dorsal root ganglion; hChon: human normal chondrocytes; OA: human OA chondrocytes", "type": "cell-based", "details": "24-72 hours; 2.5 mg/ml of HA or equivalent by gram:gram ratio; three cell types", "protocol": "as §1"}}}
{"molecule": "CCN(CC)CC(=O)Nc1c(C)cccc1C", "note": "[Lidocaine]", "values": [{"measurement": "Reduction of sodium current reported in the literature", "setting": "[1]", "value": 38, "unit": "%"}]}
{"molecule": "NC1=N[C@H](O)[C@H]2[C@H]3O[C@]4(O)O[C@@H]([C@@H](O)[C@@]2(N1)[C@@H]4O)[C@]3(O)CO", "note": "[TTX, tetrodotoxin]", "values": [{"measurement": "Percentage reduction of sodium current (control)", "setting": "[2]", "value": "approximately 99%"}]}
{"molecule": "Poly-L-Arginine [PLA 1.9 kDa]", "values": [{"measurement": "Concentration at which most suppression of spike count is seen", "setting": "DRG cells", "value": 10, "unit": "µg/mL"}, {"measurement": "Viability (Live/Dead)", "setting": "DRGs", "value": "best viability profile"}, {"measurement": "Capsaicin (TRPV1 pathway) response", "setting": "[3]; cortical neurons, n=3", "value": "blocks the capsaicin (TRPV1 pathway response)"}, {"measurement": "Glutamate response", "setting": "[3]; glutamic acid after capsaicin", "value": "glutamate response is unaffected"}, {"measurement": "Block of sodium current", "setting": "cortical neurons", "value": "time dependent effect—getting stronger with time"}, {"measurement": "E. coli growth (optical density as percentage of control)", "setting": "E. coli [4]", "value": "potent giving quantifiable antimicrobial effects at all concentrations tested"}, {"measurement": "E. coli growth (optical density as percentage of control)", "setting": "E. coli [4]; listed as PLA", "value": "very potent"}, {"measurement": "Optical density (OD)", "setting": "E. coli [4]; all concentrations (0.01-0.5 mg/ml)", "value": "≤ 0.0"}, {"measurement": "Activity in disk diffusion", "setting": "E. coli [5]", "value": "activity against all tested species"}, {"measurement": "Activity in disk diffusion", "setting": "S. aureus", "value": "activity against all tested species"}, {"measurement": "Activity in disk diffusion", "setting": "S. epidermis", "value": "activity against all tested species"}]}
{"molecule": "Poly-L-arginine hydrochloride [Hydrobloc C01]", "values": [{"measurement": "Metabolic activity (Alamar Blue)", "setting": "[6]", "value": "negatively affect metabolic activity"}, {"measurement": "Viability (Live/Dead)", "setting": "DRGs", "value": "negatively affect viability"}]}
